Experimental data published in US20080233102A1, “Drug Therapy for Celiac Sprue” (priority 2002, published 2008).
pKi: −log10 of the molar value. Where two headings read alike, the source gives them in different places.

Experiments:
[1] = target: T1, Tissue transglutaminase (tTG) (Homo sapiens, UniProt P21980); assay: Inhibition of tTG (residual activity, glutamate dehydrogenase coupled assay); format: biochemical
T1 sequence (P21980 1-687): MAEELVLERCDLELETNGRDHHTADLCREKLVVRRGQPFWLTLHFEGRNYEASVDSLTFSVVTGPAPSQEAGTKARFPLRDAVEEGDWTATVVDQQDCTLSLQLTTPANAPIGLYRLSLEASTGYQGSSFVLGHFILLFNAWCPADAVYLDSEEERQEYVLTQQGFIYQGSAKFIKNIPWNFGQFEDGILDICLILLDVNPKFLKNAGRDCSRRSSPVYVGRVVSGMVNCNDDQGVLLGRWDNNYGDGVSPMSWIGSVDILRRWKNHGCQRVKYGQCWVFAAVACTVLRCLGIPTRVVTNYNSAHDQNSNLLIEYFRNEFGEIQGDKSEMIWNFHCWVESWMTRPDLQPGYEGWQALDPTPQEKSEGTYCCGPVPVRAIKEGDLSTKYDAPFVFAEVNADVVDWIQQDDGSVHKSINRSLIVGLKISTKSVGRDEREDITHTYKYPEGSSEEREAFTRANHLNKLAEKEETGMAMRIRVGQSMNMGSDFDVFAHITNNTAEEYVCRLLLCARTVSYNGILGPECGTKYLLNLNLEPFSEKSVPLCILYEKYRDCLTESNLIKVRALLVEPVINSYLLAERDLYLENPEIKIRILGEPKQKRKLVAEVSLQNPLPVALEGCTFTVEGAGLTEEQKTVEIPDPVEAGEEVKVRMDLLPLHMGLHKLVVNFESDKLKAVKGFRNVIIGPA
Experimental: Inhibition of tTG. tTG (9 μM) was inactivated in 200 mM MOPS, pH=7.1, 5 mM CaCl2, 1 mM ETDA at 30° C. containing 0-600 μM Pro-Gln-Pro-Aci-Leu-Pro-Tyr. Every 20 minutes a 40 μl aliquot was removed and residual tTG activity was assayed in 0.5 ml reaction containing 200 mM MOPS, pH=7.1, 5 mM CaCl2, 1 mM ETDA, 10 mM α-ketoglutarate, 180 U/ml glutamate dehydrogenase (Biozyme laboratories) at 30° C. for 20 minutes by measuring the decrease of absorption at 340 nm. Residual activity was corrected by the corresponding uninhibited tTG reaction (0 μM inhibitor) and fitted to an exponential decay. Kinetic parameters were obtained by double-reciprocal plotting of the apparent second-order inactivation constant or, for isatin analogs, by fitting the data for reversible inhibitors to a standard Michaelis Menten equation with a competitive inhibition constant.

[2] = tested on: bovine epidermal transglutaminase; settings: Castelhano et al., Bioorg. Chem. (1988) 16, 335-340; cited from earlier work
[3] = target: T2, recombinant human tissue transglutaminase (Homo sapiens, UniProt P21980); assay: tTGase assay with recombinant human tissue transglutaminase; format: biochemical; settings: dihydroisoxazole inhibitors of human tTGase; for Inhibition Rate Constants (kinh): irreversible inactivation; for pKi: competitive with Cbz-Gln-Gly substrate, read-out: Dissociation Constants (Kl)
T2 construct: made in house
T2 sequence (P21980 1-687): T1 sequence (P21980 1-687)

[4] = dihydroisoxazoles, 200 mM MOPS, pH=7.1, 30° C., read-out: KI
[5] = isatin derivatives, reversible, competitive inhibition constant, read-out: Kl

| Structure (SMILES) | Inhibition Rate Constants (kinh) [3] | kinh/Kl [3] | pKi [3] | also measured |
| --- | --- | --- | --- | --- |
| Cc1ccc(C)c(NC(=O)NCC2CC(Br)=NO2)c1 (stereo not drawn) [1-(3-Bromo-4,5-dihydro-isoxazol-5-ylmethyl)-3-(2,5-dimethyl-phenyl)-urea] |  |  |  | pKi [1, 4]: 3.02 |
| O=C(NCC1CC(Br)=NO1)Nc1cc(C(F)(F)F)ccc1Cl (stereo not drawn) [1-(3-Bromo-4,5-dihydro-isoxazol-5-ylmethyl)-3-(2-chloro-5-trifluoromethyl-phenyl)-urea] |  |  |  | pKi [1, 4]: 3.04 |
| O=C(NCC1CC(Br)=NO1)Nc1ccc(Cl)cc1C(F)(F)F (stereo not drawn) [1-(3-Bromo-4,5-dihydro-isoxazol-5-ylmethyl)-3-(4-chloro-2-trifluoromethyl-phenyl)-urea] |  |  |  | pKi [1, 4]: 2.89 |
| O=C(NCC1CC(Br)=NO1)Nc1ccc(F)cc1 (stereo not drawn) [1-(3-Bromo-4,5-dihydro-isoxazol-5-ylmethyl)-3-(4-fluoro-phenyl)-urea] |  |  |  | pKi [1, 4]: 2.89 |
| O=C(NCC1CC(Br)=NO1)Nc1ccccc1 (stereo not drawn) [1-(3-Bromo-4,5-dihydro-isoxazol-5-ylmethyl)-3-phenyl-urea] |  |  |  | pKi [1, 4]: 2.96 |
| O=C(N[C@@H](Cc1ccccc1)C(=O)NCC1CC(Br)=NO1)OCc1ccccc1 (stereo partly drawn) [1a, {(S)-1-[(3-Bromo-4,5-dihydro-isoxazol-5-ylmethyl)-carbamoyl]-2-phenyl-ethyl}-carbamic acid benzyl ester] | 1.3 min⁻¹ |  |  | Inhibition of bovine epidermal transglutaminase [2]: inhibitor |
| O=C(N[C@@H](Cc1ccc(O)cc1)C(=O)NCC1CC(Br)=NO1)OCc1ccccc1 (stereo partly drawn) [1b] | 0.86 min⁻¹ | 2000 min^−1M^−1 | 3.38 |  |
| O=C(N[C@@H](Cc1ccc(F)cc1)C(=O)NCC1CC(Br)=NO1)OCc1ccccc1 (stereo partly drawn) [1c, {(S)-1-[(3-Bromo-4,5-dihydro-isoxazol-5-ylmethyl)-carbamoyl]-2-(4-fluoro-phenyl)-ethyl}-carbamic acid benzyl ester] | 0.42 min⁻¹ | 980 min^−1M^−1 | 3.37 |  |
| O=C(N[C@@H](Cc1cccc(F)c1)C(=O)NCC1CC(Br)=NO1)OCc1ccccc1 (stereo partly drawn) [1d, {(S)-1-[(3-Bromo-4,5-dihydro-isoxazol-5-ylmethyl)-carbamoyl]-2-(3-fluoro-phenyl)-ethyl}-carbamic acid benzyl ester] | 0.84 min⁻¹ | 2200 min^−1M^−1 | 3.41 |  |
| O=C(N[C@@H](Cc1c[nH]c2ccccc12)C(=O)NCC1CC(Br)=NO1)OCc1ccccc1 (stereo partly drawn) [1e, {(S)-1-[(3-Bromo-4,5-dihydro-isoxazol-5-ylmethyl)-carbamoyl]-2-(1H-indol-3-yl)-ethyl}carbamic acid benzyl ester] | 0.78 min⁻¹ | 2500 min^−1M^−1 | 3.51 |  |
| O=C(N[C@@H](Cc1c[nH]c2ccc(O)cc12)C(=O)NCC1CC(Br)=NO1)OCc1ccccc1 (stereo partly drawn) [1f, {(S)-1-[(3-Bromo-4,5-dihydro-isoxazol-5-ylmethyl)-carbamoyl]-2-(5-hydroxy-1H-indol-3-yl)-ethyl}-carbamic acid benzyl ester] | 0.31 min⁻¹ | 2800 min^−1M^−1 | 3.96 |  |
| O=C(C[C@H](NC(=O)OCc1ccccc1)C(=O)NCC1CC(Br)=NO1)NCc1ccccc1 (stereo partly drawn) [1g, {(S)-2-Benzylcarbamoyl-1-[(3-bromo-4,5-dihydro-isoxazol-5-ylmethyl)-carbamoyl]-ethyl}-carbamic acid benzyl ester] | 0.54 min⁻¹ | 2300 min^−1M^−1 |  |  |
| O=C(N[C@H](Cc1ccccc1)C(=O)NCC1CC(Br)=NO1)OCc1ccccc1 (stereo partly drawn) [1h, {(R)-1-[(3-Bromo-4,5-dihydro-isoxazol-5-ylmethyl)-carbamoyl]-2-phenyl-ethyl}-carbamic acid benzyl ester] | 0.29 min⁻¹ |  |  |  |
| C[C@H](NC(=O)OCc1ccccc1)C(=O)NCC1CC(Br)=NO1 (stereo partly drawn) [1i, {(S)-1-[(3-Bromo-4,5-dihydro-isoxazol-5-ylmethyl)-carbamoyl]-ethyl}-carbamic acid benzyl ester] | 0.41 min⁻¹ | 450 min^−1M^−1 |  |  |
| O=C(N[C@@H](Cc1ccccc1)C(=O)OCC1CC(Br)=NO1)OCc1ccccc1 (stereo partly drawn) [2a, (S)-2-Benzyloxycarbonylamino-3-phenyl-propionic acid 3-bromo-4,5-dihydro-isoxazol-5-ylmethyl ester] | 0.32 min⁻¹ | 230 min^−1M^−1 |  |  |
| CN(CC1CC(Br)=NO1)C(=O)[C@H](Cc1ccccc1)NC(=O)OCc1ccccc1 (stereo partly drawn) [2b, {(S)-1-[(3-Bromo-4,5-dihydro-isoxazol-5-ylmethyl)-methyl-carbamoyl]-2-phenyl-ethyl}-carbamic acid benzyl ester] | 0.19 min⁻¹ | 730 min^−1M^−1 |  |  |
| CC(=O)N[C@@H](Cc1ccccc1)C(=O)NCC1CC(Br)=NO1 (stereo partly drawn) [3a, (S)-2-Acetylamino-N-(3-bromo-4,5-dihydro-isoxazol-5-ylmethyl)-3-phenyl-propionamide] | 0.60 min⁻¹ | 220 min^−1M^−1 |  |  |
| O=C(N[C@@H](Cc1ccc(O)cc1)C(=O)NCC1CC(Br)=NO1)OCc1ccncc1 (stereo partly drawn) [3b, {(S)-1-[(3-Bromo-4,5-dihydro-isoxazol-5-ylmethyl)-carbamoyl]-2-(4-hydroxy-phenyl)-ethyl}-carbamic acid pyridin-4-ylmethyl ester] | 0.12 min⁻¹ | 1500 min^−1M^−1 | 4.09 |  |
| O=C(N[C@@H](Cc1ccc(O)cc1)C(=O)NCC1CC(Br)=NO1)OCc1cccnc1 (stereo partly drawn) [3c, {(S)-1-[(3-Bromo-4,5-dihydro-isoxazol-5-ylmethyl)-carbamoyl]-2-(4-hydroxy-phenyl)-ethyl}-carbamic acid pyridin-3-ylmethyl ester] | 0.21 min⁻¹ | 2700 min^−1M^−1 | 4.11 |  |
| O=C(N[C@@H](Cc1ccc(O)cc1)C(=O)NCC1CC(Br)=NO1)OCCc1ccccc1 (stereo partly drawn) [3d, {(S)-1-[(3-Bromo-4,5-dihydro-isoxazol-5-ylmethyl)-carbamoyl]-2-(4-hydroxy-phenyl)-ethyl}-carbamic acid phenethyl ester] | 0.093 min⁻¹ | 1500 min^−1M^−1 | 4.21 |  |
| O=C(N[C@@H](Cc1ccc(O)cc1)C(=O)NCC1CC(Br)=NO1)OCc1ccc2ccccc2c1 (stereo partly drawn) [3e, {(S)-1-[(3-Bromo-4,5-dihydro-isoxazol-5-ylmethyl)-carbamoyl]-2-(4-hydroxy-phenyl)-ethyl}-carbamic acid naphthalen-2-ylmethyl ester] | 0.070 min⁻¹ | 1600 min^−1M^−1 | 4.37 |  |
| O=C(N[C@@H](Cc1ccc(O)cc1)C(=O)NCC1CC(Br)=NO1)OCC1=Cc2ccccc2S1(=O)=O (stereo partly drawn) [3f, {(S)-1-[(3-Bromo-4,5-dihydro-isoxazol-5-ylmethyl)-carbamoyl]-2-(4-hydroxy-phenyl)-ethyl}-carbamic acid 1,1-dioxo-1H-1λ6-benzo[b]thiophen-2-ylmethyl ester] | 0.38 min⁻¹ | 4400 min^−1M^−1 | 4.06 |  |
| O=C1Nc2c(cccc2-c2ccccc2)C1=O [R1 = R2 = H; R3 = Ph] |  |  |  | pKi [1, 5]: 3.40 |
| O=C1Nc2ccccc2C1=O [R1 = R2 = R3 = H] |  |  |  | pKi [1, 5]: 3.07 |
| O=C1Nc2cc(-c3ccccc3)ccc2C1=O [R1 = R3 = H; R2 = Ph] |  |  |  | pKi [1, 5]: 3.46 |
| O=C1Nc2ccc([N+](=O)[O-])cc2C1=O [R2 = R3 = H, R1 = NO2] |  |  |  | pKi [1, 5]: 4.32 |
| O=C1Nc2ccc(F)cc2C1=O [R2 = R3 = H; R1 = F] |  |  |  | pKi [1, 5]: 4.74 |
| O=C1Nc2ccc(I)cc2C1=O [R2 = R3 = H; R1 = I] |  |  |  | pKi [1, 5]: 4.66 |
| O=C(N[C@@H](Cc1c[nH]c2ccc(O)cc12)C(=O)NCC1CC(Br)=NO1)OCC1=Cc2ccccc2S1(=O)=O (stereo partly drawn) [compound 4, {(S)-1-[(3-Bromo-4,5-dihydro-isoxazol-5-ylmethyl)-carbamoyl]-2-(5-hydroxy-1H-indol-3-yl)-ethyl}-carbamic acid 1,1-dioxo-1H-1λ6-benzo[b]thiophen-2-ylmethyl ester] | 0.54 min⁻¹ | 6800 min^−1M^−1 | 4.10 |  |
